Patent publication US11944665B2, “Methods and compositions for modulating lymphatic vessels in the central nervous system” (University of Virginia Patent Foundation, priority 2016, dated 2024)

Key:
[1] = tested on: nasal lymphatics; assay: Nasal lymphatics after intranasal Visudyne (Example 25); format: in vivo, mice; settings: 24 h after intranasal (i.n.) injection
Experimental: Adult mice were injected i.c.m. with Visudyne. Fifteen to thirty minutes injection, Visudyne was converted using a non-thermal 689 nm laser applied on the intact skull. In the targeted group, the laser was aimed at 5 different spots localized above the meningeal lymphatics. In the non-targeted group, the laser was aimed further away to no convert the Visudyne localized within the meningeal lymphatics.
The density of exogenously injected T cells per mm2 of dCLN in targeted and non-targeted Visudyne treated mice was quantified (FIG. 49A) (expressed as percentage of the control condition)(mean±s.e.m, n=4-6 mice/group, **p=0.0072 Student t test). Images of the nasal lymphatics (Prox1GFP—green, Lyve1—red) were obtained 24 h after laser or intranasal (i.n.) injection of Visudyne. The inset illustrate the lymphatic bundle at the base of the skull that gets ablated after Visudyne treatment. Scale bar=50 μm. The density of T cells per mm2 of dCLN was quantified (FIG. 49B) or percentage of beads coverage was quantified (FIG. 49C) in the dLCN of laser, Visudyne (i.n.)+laser and Visudyne (i.c.m.)+laser treated mice (expressed as percentage of the control condition). […] T cells were quantified in the meninges of laser and Visudyne (i.c.m.)+laser treated mice at 7 days post ablation. T cells were quantified in the meninges of laser and Visudyne (i.c.m.)+laser treated mice (FIG. 49D). […]

[2] = tested on: meningeal lymphatic; assay: Lymphatic drainage of fluorescent microbeads into deep cervical lymph nodes (FIG. 15); format: in vivo, mice; settings: pharmacological ablation, 24 h after ablation, vs PBS
Experimental: FIGS. 15A-E are a series of diagrams, microscope images, and graphs showing modulation of the meningeal lymphatic affects drainage into the cervical lymph nodes. […] Fluorescent microbeads (0.5 μm in diameter-5 μl) were injected in the lateral ventricle of mice at a rate of 0.5 μl/min. 30 min later, the deep cervical lymph nodes were harvested, sliced and immunostained for the presence of fluorescent beads. FIG. 15B is a pair of representative sections of deep cervical lymph nodes from sham operated (left) and ligated (right) mice immunostained for lymphatic vasculature (Lyve-1), fluorescent microbeads and Lyve-1. Note the accumulation of microbeads in the subcapsular space of the lymph nodes in the sham operated mice (left). […] N=3-4 mice per group, Student-t-test. d. Quantification of the coverage of dCLN section by fluorescent beads in PBS and Visudyne injected mice (24 h after ablation). N=3-5 mice per group, *p<0.05, Student-t-test. e. Quantification of the coverage of dCLN section by fluorescent beads in PBS and VEGF-c injected mice (5 days after VEGF-c injection). N=4 mice per group.

[3] = tested on: meningeal lymphatic vessels; assay: Visudyne ablation in old mice, OVA-A647 CSF tracer (Example 3); format: in vivo, C57BL/6 mice; settings: old (20-24 months-old) mice, 7 days post ablation, vs old+vehicle
Experimental: Injections of visudyne or vehicle (ICM), followed by a photoconversion step, were performed in adult (3 months-old) or old (20-24 months-old) C57BL/6 mice. 7 days post ablation, OVA-A647 (2.5 μg) was injected into the CSF (ICM) and mice were transcardially perfused with saline 2 h after.

[4] = tested on: meningeal lymphatic vessels; assay: Visudyne ablation, OVA-A647 CSF tracer drainage and brain influx (Example 2); format: in vivo, C57BL/6 mice; settings: vs vehicle
Experimental: Adult C57BL/6 mice were injected with visudyne or vehicle (ICM) followed by a step of photoconversion. 7 days post ablation, 2.5 μg of ovalbumin-Alexa647 (OVA-A647) was injected into the CSF (ICM) and mice were transcardially perfused with saline 2 h after. j, Representative sections of dcLNs were stained with DAPI and LYVE-1, and levels of drained OVA-A647 were measured, and representative sections are shown for vehicle (FIG. 24A) and visudyne (FIG. 24B). OVA-A647 alone is shown in the inset in the upper right corner of each of FIGS. 24A and 24B, and LYVE-1 alone is shown in the inset in the lower right corner of each of FIGS. 24A and 24B.

[5] = tested on: meningeal lymphatics; assay: Photoablation of meningeal lymphatics, Visudyne 5 or 20 μg, 690 nm laser (FIG. 14); format: in vivo, mice; settings: 5 or 20 μg i.c.v., 24 hrs post-ablation
Experimental: Meninges were stained for Lyve-1, Prox1 and CD31 24 hrs post-ablation. […] In FIG. 14C, the top panel refers to a control, the middle mane refers to 20,000 ng of Visudyne, and the bottom panel refers to 5,000 ng of Visudyne.

With verteporfin [Visudyne] the “nasal lymphatic bundle at the base of the skull” value [1] was “gets ablated”, the “lymphatic drainage into the cervical lymph nodes after ablation” value [2] was “alteration of lymphatic drainage” and the “influx of a CSF tracer (OVA-A647) into the brain” value [3] was “does not further aggravate”. For the same substance, the “amount of OVA-A647 drained into the dcLNs” value ([4]; 2 h after OVA-A647 2.5 μg ICM, 7 days post ablation) was “significantly decreased”, the “OVA-A647 influx into the brain parenchyma” value ([4]; 2 h after OVA-A647 ICM, 7 days post ablation) was “significant decrease” and the “brain parenchyma coverage by aquaporin 4 (AQP4) expressing cells” value ([4]; adult mice, visudyne-induced ablation) was “no changes”. The “effect on the blood vessels (CD31)” value [5] was “No effect on the blood vessels” and the “meningeal lymphatics in superior sagittal and transverse sinuses (Lyve-1, Prox1)” value [5] was “Disruption of lymphatics”.
